Results as given in article PMC8615111, “Phenolic Thiazoles with Antioxidant and Antiradical Activity. Synthesis, In Vitro Evaluation, Toxicity, Electrochemical Behavior, Quantum Studies and Antimicrobial Screening” (Antioxidants, 2021).
Like-named read-outs stand apart in the source and are kept apart here.

How the values were obtained:
[1] = system: S. typhimurium ATCC 14028; test: Antimicrobial activity, modified microdilution; assay type: cell-based; conditions: Salmonella enterica
[2] = system: E. coli ATCC 25922; test: Antimicrobial activity, modified microdilution; assay type: cell-based; conditions: Escherichia coli, ATCC25922
[3] = system: P. aeruginosa ATCC 27853; test: Antimicrobial activity, modified microdilution; assay type: cell-based; conditions: Pseudomonas aeruginosa, ATCC27853
[4] = system: S. enterica ISM 83/37; test: Antimicrobial activity, modified microdilution; assay type: cell-based; conditions: Salmonella enterica, ISM83/37
[5] = system: S. aureus ATCC 25923; test: Antimicrobial activity, modified microdilution; assay type: cell-based; conditions: Staphylococcus aureus, ATCC25923
[6] = system: S. pyogenes ATCC 19615; test: Antimicrobial activity, modified microdilution; assay type: cell-based; conditions: Streptococcus pyogenes, ATCC19615
[7] = Cyclic voltammetry of the compounds on graphite-based SPE; assay type: physicochemical; conditions: CV, 0.1 M HClO4, graphite-based SPE
Procedure: The evaluated compounds’ stock solutions used were prepared at a concentration of 5 mM. To test their redox properties, dilutions of 0.5 mM and 2 mM were prepared in 0.1 M HClO4 electrolyte (pH = 1.2). Screen-printed electrodes (SPEs; Metrohm DropSens, Oviedo, Spain) (planar electrodes) with graphite and gold working electrodes were used. Cyclic voltammetry (CV) and differential pulse voltammetry (DPV) were the electrochemical methods applied. The experimental conditions for each test are mentioned near the corresponding data (Appendix A).
In Figure 2, the cyclic voltammograms (CVs) for each of the compounds considered in this study, compared individually with the voltammogram obtained in the electrolyte (0.1 M HClO4), are presented. Thus, the oxidation/reduction peaks corresponding to the electrochemical transformations suffered by each compound can be observed in the potential range considered, in an acidic environment (low pH). From Figure 3, where the voltammograms of all eight compounds were presented together, a similarity is observed between 8a and 8b, and among the other compounds, whereas 5a and 5b can be noted as having the highest oxidation signals.

[8] = NO˙ radical scavenging assay (Griess reaction); assay type: biochemical; conditions: 100 µL of test solution 1 mg/mL in DMSO, 150 min, pH 7.4
Procedure: Scavenging of the NO˙ radical was performed according to some adapted protocols reported in the literature, based on the nitroprusside decomposition at physiological pH and colorimetric quantification of the resulted products using the Griess reaction.
Over 200 µL of 10 mM sodium nitroprusside, 100 µL of test solutions (1 mg/mL in DMSO), and 400 µL phosphate-buffered saline (PBS, pH = 7.4) were added. The mixture was then incubated at room temperature for 150 min on a rotating shaker (GFL Gesellschaft für Labortechnik, Burgwedel, Germany). After that, 1 mL of sulfanilic acid 0.33% in 20% acetic acid was added and after 5 min, 1 mL of naphthylethylenediamine […] 0.1% was added to all test tubes. After 30 min, the absorbance of the sample, given by the chromophore (azo dye) formed during the diazotization of nitrite ions resulting from decomposition of sodium nitroprusside with sulfanilic acid and coupled with naphthylethylenediamine, was measured at 546 nm. The NO˙ radical scavenging activity of the tested compounds was calculated using Equation (3):(3) NO˙ scavenging (%)=control absorbance−sample absorbance/control absorbance×100

[9] = system: HaCaT cells; test: Cytotoxicity determination, MTT method; assay type: cell-based; conditions: Homo sapiens, HaCaT cells, MTT, 24 h
Procedure: To determine the cytotoxic action of the obtained compounds 5[…], and 8a-b, a normal human keratinocytes cell line was used (HaCaT keratinocytes, CLS-300493, Eppelheim, Germany). HaCaT cells were cultured in Dulbecco's Modified Eagle Media (DMEM) supplemented with 1% L-glutamine, 1% penicillin-streptomycin, and 5% fetal bovine serum. At 80% confluence, the cells were transferred to 96 well plates at a confluence of 12×10^3 cells/well and left to attach for 24 h at 37°C and 5% CO2 in a humidified atmosphere. […] After 24 h, the culture media was replaced with 100 μL of MTT solution at a final concentration of 5 μg/mL/well and left to interact with the cells for 2 h in the incubator. After this, the MTT solution was replaced with 100 μL of isopropanol, left to dissolve the formazan crystals for 5 min, and read at 550 and 630 nm using a BioTek Epoch plate reader (BioTek Instruments, Winooski, VT, USA) and Gen5 software (version 1.09).

[10] = Cu^2+ chelation assay; assay type: biochemical
[11] = system: C. albicans ATCC 102310; test: Antifungal activity, modified microdilution; assay type: cell-based; conditions: Candida albicans, ATCC102310
Procedure: For evaluating the antimicrobial activity of the compounds, […] aerobic microbial strains were used: S. aureus ATCC 25923, S. pyogenes ATCC 19615, P. aeruginosa ATCC 27853, S. enterica ISM 83/37, S. typhimurium ATCC 14028, E. coli ATCC 8739, E. coli ATCC 25922, and C. albicans ATCC 102310 obtained from Food Biotechnology Laboratory, Life Sciences Institute, University of Agricultural Sciences, and Veterinary Medicine Cluj Napoca, where the experiment was performed. The antimicrobial activity of the compounds was determined using a modified microdilution technique, and the followed protocol was previously reported.
The antimicrobial activity of the final compounds, against seven aerobic microbial strains (S. aureus ATCC 25923, S. pyogenes ATCC 19615, P. aeruginosa ATCC 27853, S. enterica ISM 83/37, S. typhimurium ATCC 14028, E. coli ATCC 8739, E. coli ATCC 25922), and a fungal strain (C. albicans ATCC 102310), was determined using a modified microdilution technique.
The results of the antimicrobial activity evaluation of the compounds, in comparison to norfloxacin and chloramphenicol used as standard antibiotics and fluconazole used as reference antifungal, are depicted in Table 10.

[12] = S. typhimurium ATCC 14028, read-out: MIC
[13] = E. coli ATCC 25922, read-out: MIC
[14] = P. aeruginosa ATCC 27853, read-out: MIC
[15] = S. aureus ATCC 25923, read-out: MIC
[16] = S. pyogenes ATCC 19615, read-out: MIC
[17] = C. albicans ATCC 102310, read-out: MIC

Br.C/C(=N\Nc1nc(-c2ccccc2)cs1)c1ccc(O)cc1O [Compound 6a, (E)-2-(1-(2,4-dihydroxyphenyl)ethylidene)-1-(4-phenylthiazol-2-yl)hydrazin-1-ium bromide]
MIC [1]: > 100 µg/mL
MIC [2]: > 100 µg/mL
MIC [3]: 31.2 µg/mL
MIC [4]: > 100 µg/mL
MIC [5]: > 100 µg/mL
MIC [6]: > 100 µg/mL
Eox (V) ([7]; 1st oxidation peak): 0.298 V
Iox (μA) ([7]; 1st oxidation peak): 10.73 μA
Eox (V) ([7]; 2nd oxidation peak): 0.418 V
Iox (μA) ([7]; 2nd oxidation peak): 22.48 μA
Ered (V) ([7]; 2nd reduction peak): 0.181 V
Ired (μA) ([7]; 2nd reduction peak): −6.84 μA
Eox (V) ([7]; 3rd oxidation peak): 0.621 V
Iox (μA) ([7]; 3rd oxidation peak): 15.03 μA
Ered (V) ([7]; 3rd reduction peak): 0.379 V
Ired (μA) ([7]; 3rd reduction peak): −1.19 μA
% of NO˙ Scavenged [8]: 20.58%
IC50 ([9]; read-out: IC50): 312 µM
IC50 ([9]; read-out: IC50 (µg/mL)): 127 µg/mL
Chelation Capacity (%), cupric ions ([10]; 3.36 µg/mL): 6.33%
Chelation Capacity (%), cupric ions ([10]; 6.72 µg/mL): 10.30%
Chelation Capacity (%), cupric ions ([10]; 10.08 µg/mL): 13.65%
Chelation Capacity (%), cupric ions ([10]; 13.44 µg/mL): 15.90%
Chelation Capacity (%), cupric ions ([10]; 16.80 µg/mL): 18.67%
MIC [11]: > 100 µg/mL

Br.Oc1ccc(/C=N/Nc2nc(-c3ccccc3)cs2)c(O)c1 [Compound 6b, (E)-2-(2,4-dihydroxybenzylidene)-1-(4-phenylthiazol-2-yl)hydrazin-1-ium bromide]
MIC [1]: > 100 µg/mL
MIC [2]: > 100 µg/mL
MIC [3]: > 100 µg/mL
MIC [4]: > 100 µg/mL
MIC [5]: > 100 µg/mL
MIC [6]: > 100 µg/mL
Eox (V) ([7]; 1st oxidation peak): 0.296 V
Iox (μA) ([7]; 1st oxidation peak): 5.28 μA
Ered (V) ([7]; 1st reduction peak): −0.08 V
Ired (μA) ([7]; 1st reduction peak): −2.22 μA
Eox (V) ([7]; 2nd oxidation peak): 0.467 V
Iox (μA) ([7]; 2nd oxidation peak): 44.99 μA
Ered (V) ([7]; 2nd reduction peak): 0.070 V
Ired (μA) ([7]; 2nd reduction peak): −1.49 μA
Ered (V) ([7]; 3rd reduction peak): 0.401 V
Ired (μA) ([7]; 3rd reduction peak): −5.91 μA
% of NO˙ Scavenged [8]: 28.35%
IC50 ([9]; read-out: IC50): < 1.27 µM
IC50 ([9]; read-out: IC50 (µg/mL)): < 0.5 µg/mL
Chelation Capacity (%), cupric ions ([10]; 3.36 µg/mL): 3.84%
Chelation Capacity (%), cupric ions ([10]; 6.72 µg/mL): 6.80%
Chelation Capacity (%), cupric ions ([10]; 10.08 µg/mL): 10.44%
Chelation Capacity (%), cupric ions ([10]; 13.44 µg/mL): 14.34%
Chelation Capacity (%), cupric ions ([10]; 16.80 µg/mL): 17.07%
MIC [11]: 62.5 µg/mL

C/C(=N\Nc1nc(-c2ccc(O)c(O)c2)cs1)c1ccc(O)cc1O.Cl [Compound 8a, (E)-2-(1-(2,4-dihydroxyphenyl)ethylidene)-1-(4-(3,4-dihydroxyphenyl)thiazol-2-yl)hydrazin-1-ium chloride]
MIC [1, 12]: > 100 µg/mL
MIC [2, 13]: > 100 µg/mL
MIC [3, 14]: 7.8 µg/mL
MIC [4]: > 100 µg/mL
MIC [5, 15]: > 100 µg/mL
MIC [6, 16]: > 100 µg/mL
Eox (V) ([7]; 1st oxidation peak): 0.174 V
Iox (μA) ([7]; 1st oxidation peak): 21.51 μA
Eox (V) ([7]; 2nd oxidation peak): 0.386 V
Iox (μA) ([7]; 2nd oxidation peak): 37.08 μA
Ered (V) ([7]; 2nd reduction peak): 0.101 V
Ired (μA) ([7]; 2nd reduction peak): −4.79 μA
Eox (V) ([7]; 3rd oxidation peak): 0.520 V
Iox (μA) ([7]; 3rd oxidation peak): 4.87 μA
Ered (V) ([7]; 3rd reduction peak): 0.335 V
Ired (μA) ([7]; 3rd reduction peak): −38.91 μA
% of NO˙ Scavenged [8]: 32.72%
IC50 ([9]; read-out: IC50): 113 µM
IC50 ([9]; read-out: IC50 (µg/mL)): 44.6 µg/mL
Chelation Capacity (%), cupric ions ([10]; 3.36 µg/mL): 11.13%
Chelation Capacity (%), cupric ions ([10]; 6.72 µg/mL): 17.02%
Chelation Capacity (%), cupric ions ([10]; 10.08 µg/mL): 25.14%
Chelation Capacity (%), cupric ions ([10]; 13.44 µg/mL): 34.16%
Chelation Capacity (%), cupric ions ([10]; 16.80 µg/mL): 38.91%
MIC [11, 17]: > 100 µg/mL

Cc1csc(N/N=C/c2ccc(O)cc2O)n1.Cl [Compound 5b, (E)-2-(2,4-dihydroxybenzylidene)-1-(4-methylthiazol-2-yl)hydrazin-1-ium chloride]
MIC [1, 12]: > 100 µg/mL
MIC [2, 13]: > 100 µg/mL
MIC [3, 14]: 31.2 µg/mL
MIC [4]: > 100 µg/mL
MIC [5, 15]: > 100 µg/mL
MIC [6, 16]: > 100 µg/mL
Eox (V) ([7]; 2nd oxidation peak): 0.425 V
Iox (μA) ([7]; 2nd oxidation peak): 69.35 μA
Ered (V) ([7]; 2nd reduction peak): 0.085 V
Ired (μA) ([7]; 2nd reduction peak): −0.68 μA
Eox (V) ([7]; 3rd oxidation peak): 0.632 V
Iox (μA) ([7]; 3rd oxidation peak): 5.87 μA
Ered (V) ([7]; 3rd reduction peak): 0.286 V
Ired (μA) ([7]; 3rd reduction peak): −2.86 μA
% of NO˙ Scavenged [8]: 35.63%
IC50 ([9]; read-out: IC50): 176 µM
IC50 ([9]; read-out: IC50 (µg/mL)): 50.3 µg/mL
Chelation Capacity (%), cupric ions ([10]; 3.36 µg/mL): 11.58%
Chelation Capacity (%), cupric ions ([10]; 6.72 µg/mL): 15.60%
Chelation Capacity (%), cupric ions ([10]; 10.08 µg/mL): 22.76%
Chelation Capacity (%), cupric ions ([10]; 13.44 µg/mL): 28.99%
Chelation Capacity (%), cupric ions ([10]; 16.80 µg/mL): 34.10%
MIC [11, 17]: > 100 µg/mL
